From BindingDB's records for doi:10.1002/cbic.201100332 (University of British Columbia, 2011)
pKi: −log10 of the molar value.

Target: T1, Lysosomal acid glucosylceramidase (Homo sapiens, UniProt P04062)
T1 sequence (P04062 whole entry): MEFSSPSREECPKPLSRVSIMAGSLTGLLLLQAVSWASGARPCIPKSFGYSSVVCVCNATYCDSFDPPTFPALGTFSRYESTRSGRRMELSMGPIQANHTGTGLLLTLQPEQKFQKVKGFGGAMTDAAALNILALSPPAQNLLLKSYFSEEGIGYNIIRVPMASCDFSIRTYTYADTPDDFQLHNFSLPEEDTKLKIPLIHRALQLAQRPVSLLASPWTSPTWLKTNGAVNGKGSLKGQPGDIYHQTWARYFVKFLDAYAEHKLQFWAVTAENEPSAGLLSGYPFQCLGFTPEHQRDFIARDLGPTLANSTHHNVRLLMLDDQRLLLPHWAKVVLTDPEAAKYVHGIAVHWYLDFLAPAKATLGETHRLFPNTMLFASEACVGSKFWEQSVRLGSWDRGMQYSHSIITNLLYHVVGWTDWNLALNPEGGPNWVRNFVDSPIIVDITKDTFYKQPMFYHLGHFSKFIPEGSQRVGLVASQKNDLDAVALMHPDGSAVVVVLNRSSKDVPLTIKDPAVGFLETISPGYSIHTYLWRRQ
Assay: Fluorescene-based Assay
Source text: Fluorescene-based assay using beta-glucocerebrosidase.

| Compound | pKi (pH 5.5) | pKi (pH 7) |
| --- | --- | --- |
| CCCC1NCC(O)C(O)C1CO (stereo unspecified) [Isofagomine derivative, 6] | 6.21 | 6.68 |
| CCCC1(CCC)NCC(O)C(O)C1CO (stereo unspecified) [Isofagomine derivative, 8] | 6.22 | 5.85 |
| OCCCC1NCC(O)C(O)C1CO (stereo unspecified) [Isofagomine derivative, 10] | 7.00 | 6.96 |
